Laboratory results published in ChEMBL document CHEMBL1201862, “PubChem BioAssay data set” (2004).
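Tested at 5 concentrations; 48 h exposure; 96-well plates; endpoints linearly interpolated, else capped at highest concentration. At the GI50, growth is halved.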 Activity calls are given as the source filed them. Cut-off read from the data, not from the text of the source: active = GI50 up to about 1.1 µM and inactive = higher.

Experiments:
Assay in all cases: inhibition of tumour cell growth, NCI panel, 48 h
COLO 205 = tested on: COLO 205
DLD-1 = tested on: DLD-1
HCC 2998 = tested on: HCC 2998
HCT-15 = tested on: HCT-15
MOLT-4 = tested on: MOLT-4
NCI-H226 = tested on: NCI-H226
NCI-H522 = tested on: NCI-H522
RXF 393 = tested on: RXF 393
SF-268 = tested on: SF-268
SF-295 = tested on: SF-295
SK-MEL-2 = tested on: SK-MEL-2
SK-MEL-5 = tested on: SK-MEL-5
SNB-19 = tested on: SNB-19
SNB-75 = tested on: SNB-75
SR = tested on: SR
TK-10 = tested on: TK-10
UO-31 = tested on: UO-31
Hs-578T = tested on: Hs-578T
MDA-N = tested on: MDA-N

N#CCCN(CCC#N)c1ccc(/C=C(/NC(=O)c2cc([N+](=O)[O-])ccc2Cl)C(=O)N=[N+]=[N-])cc1
GI50 (COLO 205): > 100000 nM (inactive)
GI50 (DLD-1): > 100000 nM (inactive)
GI50 (HCC 2998): > 100000 nM (inactive)
GI50 (HCT-15): > 100000 nM
GI50 (MOLT-4): > 100000 nM (inactive)
GI50 (NCI-H226): > 100000 nM (inactive)
GI50 (NCI-H522): > 100000 nM (inactive)
GI50 (RXF 393): > 100000 nM (inactive)
GI50 (SF-268): > 100000 nM (inactive)
GI50 (SF-295): > 100000 nM (inactive)
GI50 (SK-MEL-2): > 100000 nM (inactive)
GI50 (SK-MEL-5): > 100000 nM (inactive)
GI50 (SNB-19): > 100000 nM (inactive)
GI50 (SNB-75): > 100000 nM (inactive)
GI50 (SR): > 100000 nM (inactive)
GI50 (TK-10): > 100000 nM (inactive)
GI50 (UO-31): > 100000 nM (inactive)

O=C1c2c(O)cccc2C(C(=O)CCCC(=O)C2c3cccc(O)c3C(=O)c3c(O)cccc32)c2cccc(O)c21
GI50 (COLO 205): 340 nM (active)
GI50 (DLD-1): 388 nM (active)
GI50 (HCC 2998): 278 nM (active)
GI50 (HCT-15): 259 nM
GI50 (Hs-578T): 66.5 nM (active)
GI50 (MDA-N): 442 nM (active)
GI50 (MOLT-4): 966 nM (active)
GI50 (NCI-H226): 456 nM (active)
GI50 (NCI-H522): 158 nM (active)
GI50 (SF-268): 248 nM (active)
GI50 (SF-295): 243 nM (active)
GI50 (SK-MEL-2): 322 nM (active)
GI50 (SK-MEL-5): 259 nM (active)
GI50 (SNB-19): 290 nM (active)
GI50 (SNB-75): 448 nM (active)
GI50 (SR): 321 nM (active)
GI50 (TK-10): 547 nM (active)
GI50 (UO-31): 417 nM (active)

CC1=C2C(=O)C(C)(C)C=C2C(=O)[C@](C)(O)C12CC2 [DEHYDROILLUDIN M]
GI50 (COLO 205): > 1000 nM (active)
GI50 (DLD-1): > 791 nM (active)
GI50 (HCC 2998): > 815 nM (active)
GI50 (HCT-15): 468 nM
GI50 (MOLT-4): > 1000 nM (active)
GI50 (NCI-H226): > 1000 nM (active)
GI50 (NCI-H522): 245 nM (active)
GI50 (RXF 393): 593 nM (active)
GI50 (SF-268): 521 nM (active)
GI50 (SF-295): 585 nM (active)
GI50 (SK-MEL-2): 614 nM (active)
GI50 (SK-MEL-5): 296 nM (active)
GI50 (SNB-19): > 1000 nM (active)
GI50 (SNB-75): > 1000 nM (active)
GI50 (SR): 610 nM (active)
GI50 (TK-10): > 1000 nM (active)
GI50 (UO-31): > 1000 nM (active)
